Results taken from PubChem BioAssay (NCI).
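1) Cells in 96-well plates. 2) Compound, 48 h, 5 concentrations. 3) Linear interpolation between surrounding doses. 4) Unreached endpoint = highest concentration. TGI is the concentration that stops growth completely.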 Where a SMILES comes first, the peptide text is derived from it. The star is where a group is joined. Cbz = O=C(OCc1ccccc1)*; Boc = CC(C)(C)OC(=O)*; Bn = c1ccc(C*)cc1

How the values were obtained:
Assay in all cases: DTP human tumour cell line panel, 48 h
SF-268 CNS = tested on: SF-268 CNS
MDA-MB-231 breast = tested on: MDA-MB-231 breast
K-562 leukemia = tested on: K-562 leukemia
HT29 colon = tested on: HT29 colon
786-0 renal = tested on: 786-0 renal
OVCAR-5 ovarian = tested on: OVCAR-5 ovarian
OVCAR-8 ovarian = tested on: OVCAR-8 ovarian

CCOP(=O)(OCC)C(Nc1cccc([N+](=O)[O-])c1)c1ccccc1 (configuration not stated)
TGI (SF-268 CNS): > 100 µM
TGI (MDA-MB-231 breast): > 100 µM
TGI (K-562 leukemia): > 100 µM
TGI (HT29 colon): > 100 µM
TGI (786-0 renal): > 100 µM
TGI (OVCAR-5 ovarian): > 100 µM

O=C1NC(=S)NC(=O)C1C(c1ccc([N+](=O)[O-])cc1)C1C(=O)NC(=S)NC1=O
TGI (MDA-MB-231 breast): > 100 µM
TGI (K-562 leukemia): > 100 µM
TGI (HT29 colon): > 100 µM
TGI (OVCAR-8 ovarian): > 100 µM
TGI (786-0 renal): > 100 µM
TGI (OVCAR-5 ovarian): > 100 µM

CC(=O)O[C@@H]1[C@H]2[C@@H](OC(=O)c3ccccc3)[C@@H](C)C[C@]2(O)[C@H](OC(C)=O)[C@@]2(C)[C@@H]3CC(C)(C)C(=O)[C@]3(OC(C)=O)C[C@@]12C
TGI (SF-268 CNS): > 25 µM
TGI (MDA-MB-231 breast): > 25 µM
TGI (OVCAR-8 ovarian): > 25 µM
TGI (786-0 renal): > 25 µM
TGI (OVCAR-5 ovarian): > 25 µM

CCOP1(=O)C=C(Sc2ccc([N+](=O)[O-])cc2[N+](=O)[O-])C(C)(C)O1 (configuration not stated)
TGI (SF-268 CNS): 49.5 µM
TGI (K-562 leukemia): > 20 µM
TGI (HT29 colon): > 75.9 µM
TGI (OVCAR-8 ovarian): 35.4 µM
TGI (786-0 renal): 23.6 µM
TGI (OVCAR-5 ovarian): 43.4 µM

Cc1nc(-n2[nH]c(C)c(CCO)c2=O)[nH]c(=O)c1CCO
TGI (SF-268 CNS): > 100 µM
TGI (MDA-MB-231 breast): > 100 µM
TGI (K-562 leukemia): > 100 µM
TGI (HT29 colon): > 100 µM
TGI (OVCAR-8 ovarian): > 100 µM
TGI (786-0 renal): > 100 µM

CCOC(=O)c1sc2nc(SC)nc3c2c1NCN3c1ccc2c(c1)OCCCO2
TGI (SF-268 CNS): > 100 µM
TGI (MDA-MB-231 breast): > 100 µM
TGI (K-562 leukemia): > 100 µM
TGI (OVCAR-8 ovarian): > 100 µM
TGI (786-0 renal): 26.8 µM
TGI (OVCAR-5 ovarian): > 100 µM

C=C(C(=O)O)C1CCC(CC/C=C(\C)CC/C=C(\C)CCC=C(C)C)CO1 (configuration not stated)
TGI (SF-268 CNS): > 100 µM
TGI (MDA-MB-231 breast): > 100 µM
TGI (HT29 colon): 29.3 µM
TGI (OVCAR-8 ovarian): 39.9 µM
TGI (786-0 renal): 28.1 µM
TGI (OVCAR-5 ovarian): 35.7 µM

CCN(CCCN(CC)C(=O)Nc1ccccc1)C(=O)Nc1ccccc1
TGI (MDA-MB-231 breast): > 100 µM
TGI (K-562 leukemia): > 100 µM
TGI (HT29 colon): > 100 µM
TGI (OVCAR-8 ovarian): > 100 µM
TGI (786-0 renal): > 100 µM
TGI (OVCAR-5 ovarian): > 100 µM

NC1=NNC2(C(=O)N1)c1ccccc1-c1ccccc12
TGI (SF-268 CNS): > 10 µM
TGI (K-562 leukemia): > 10 µM
TGI (OVCAR-8 ovarian): > 10 µM
TGI (786-0 renal): > 10 µM
TGI (OVCAR-5 ovarian): > 10 µM

N#CCC(=O)c1cc(OCc2cc(OCc3ccc(Br)cc3)cc(OCc3ccc(Br)cc3)c2)cc(OCc2cc(OCc3ccc(Br)cc3)cc(OCc3ccc(Br)cc3)c2)c1
TGI (SF-268 CNS): > 100 µM
TGI (MDA-MB-231 breast): > 100 µM
TGI (K-562 leukemia): > 100 µM
TGI (786-0 renal): > 100 µM
TGI (OVCAR-5 ovarian): > 100 µM

Cc1cc(C)nc(NC(=S)Nc2ccccc2Cl)c1
TGI (SF-268 CNS): > 100 µM
TGI (K-562 leukemia): > 100 µM
TGI (HT29 colon): > 100 µM
TGI (OVCAR-8 ovarian): > 100 µM
TGI (786-0 renal): > 100 µM
TGI (OVCAR-5 ovarian): > 100 µM

CC1=C(O)C(=O)C[C@]2(C)[C@H]3CC=C4[C@@H]5CC(C)(C)CC[C@@H]5C(=O)[C@H](O)[C@@]4(C)[C@]3(C)CC[C@@H]12
TGI (SF-268 CNS): > 50 µM
TGI (MDA-MB-231 breast): > 50 µM
TGI (HT29 colon): > 50 µM
TGI (OVCAR-8 ovarian): > 50 µM
TGI (786-0 renal): > 50 µM
TGI (OVCAR-5 ovarian): > 50 µM

O=C1CCCCC1=C(I)I
TGI (SF-268 CNS): 57.2 µM
TGI (K-562 leukemia): 95.8 µM
TGI (OVCAR-8 ovarian): > 100 µM
TGI (786-0 renal): 31.9 µM
TGI (OVCAR-5 ovarian): 31.6 µM

C=CCOc1ccc(/C(N=Nc2ccccc2)=N/NC(=O)c2ccccc2)cc1OC
TGI (SF-268 CNS): > 100 µM
TGI (MDA-MB-231 breast): > 100 µM
TGI (HT29 colon): > 100 µM
TGI (OVCAR-8 ovarian): > 100 µM
TGI (786-0 renal): > 100 µM
TGI (OVCAR-5 ovarian): > 100 µM

CC(C)(C)[Si](C)(C)OCC1OC(n2ccc(=O)[nH]c2=O)C(O[Si](C)(C)C(C)(C)C)[C@@]12O[C@H]2C(N)=O (some centres not stated)
TGI (SF-268 CNS): 28.2 µM
TGI (MDA-MB-231 breast): 21.7 µM
TGI (HT29 colon): 12.4 µM
TGI (OVCAR-8 ovarian): 32.5 µM
TGI (786-0 renal): 29.9 µM
TGI (OVCAR-5 ovarian): 40.6 µM

CC(O)(/C=C/c1ccccc1)P(=O)(O)c1ccccc1 (configuration not stated)
TGI (SF-268 CNS): > 100 µM
TGI (K-562 leukemia): > 100 µM
TGI (HT29 colon): > 100 µM
TGI (OVCAR-8 ovarian): > 100 µM
TGI (786-0 renal): > 100 µM
TGI (OVCAR-5 ovarian): > 100 µM

CC(C)(C)OC(=O)NC(Cc1ccc(OCc2ccccc2)cc1)C(=O)NC(CCCCNC(=O)OCc1ccccc1)C(=O)O (configuration not stated) (Boc-Tyr(Bn)-Lys(Cbz)-OH; configuration not given here)
TGI (MDA-MB-231 breast): > 100 µM
TGI (K-562 leukemia): > 100 µM
TGI (HT29 colon): > 100 µM
TGI (OVCAR-8 ovarian): > 100 µM
TGI (786-0 renal): > 100 µM
TGI (OVCAR-5 ovarian): > 100 µM

OCC1OC(Oc2cc(O)cc(/C=C/c3ccc(O)cc3)c2)C(O)C(O)C1O (configuration not stated)
TGI (MDA-MB-231 breast): > 100 µM
TGI (K-562 leukemia): > 100 µM
TGI (HT29 colon): > 100 µM
TGI (OVCAR-8 ovarian): > 100 µM
TGI (786-0 renal): > 100 µM
TGI (OVCAR-5 ovarian): > 100 µM

N#Cc1c(-c2ccc(Cl)cc2)c(C#N)c(=O)n(NS(=O)(=O)c2ccccc2)c1S
TGI (MDA-MB-231 breast): 75.2 µM
TGI (K-562 leukemia): > 100 µM
TGI (OVCAR-8 ovarian): 65 µM
TGI (786-0 renal): 34.6 µM
TGI (OVCAR-5 ovarian): > 100 µM

COc1ccc(-c2cc(-c3ccc(Nc4ccnc5cc(Cl)ccc45)cc3)nc(N)c2C#N)cc1
TGI (SF-268 CNS): > 100 µM
TGI (MDA-MB-231 breast): > 100 µM
TGI (K-562 leukemia): > 100 µM
TGI (OVCAR-8 ovarian): > 100 µM
TGI (786-0 renal): > 100 µM
TGI (OVCAR-5 ovarian): > 100 µM

COc1ccc(N=Nc2ccc3oc(=O)c(C(=O)Nc4ccccc4)cc3c2)cc1
TGI (SF-268 CNS): > 10 µM
TGI (MDA-MB-231 breast): > 10 µM
TGI (HT29 colon): > 10 µM
TGI (OVCAR-8 ovarian): > 10 µM
TGI (786-0 renal): > 10 µM
TGI (OVCAR-5 ovarian): > 10 µM

O=c1[nH]c(=O)n(COCCO)c2ccc(Br)cc12
TGI (MDA-MB-231 breast): > 100 µM
TGI (K-562 leukemia): > 100 µM
TGI (HT29 colon): > 100 µM
TGI (OVCAR-8 ovarian): > 100 µM
TGI (786-0 renal): > 100 µM
TGI (OVCAR-5 ovarian): > 100 µM
